Measured values as given in patent US20060058312A1, “Stabilized aqueous preparation for injection” (priority 2004, published 2006).
Read-outs that look alike come from different tables or passages of the source.

Type: physicochemical
Conditions: buffer, 13 mg/mL, pH 6.2
Experimental: For the aqueous preparations obtained in (1) to (3) above, tests evaluating stability at 60° C./3 weeks were performed. The calcium levofolinate content remaining in the aqueous solution was measured using high performance liquid chromatography under the following conditions (the same were employed in the following experiments) 2 ml each of the test preparations were weighed, and 10 ml of the internal standard solution described below (the same was employed in the following experiments) were added thereto. Subsequently, water was added to adjust the total volume of the solution to 50 ml, thereby to prepare a test solution. Meanwhile, 62.5 mg of calcium levofolinate were dissolved in water so as to prepare a 25 ml solution. Then, to 10 ml of the resultant solution were added 10 ml of the internal standard solution, and the total volume of the solution was adjusted to 50 ml by adding water, thereby to prepare a standard solution. For 20 μl of the standard solution and the test solution, the content of calcium levofolinate was measured by the liquid chromatography method under the following conditions.
1) Measurement Conditions • Detector: Ultraviolet absorptiometer (Measurement wavelength: 254 nm) • Column: A stainless tube having an internal diameter of 4.0 mm and a length of 15 cm was filled with 5 μm of octadecylsilylated silica gel for liquid chromatography. • Column temperature: A constant temperature near 45° C. • Mobile phase: The pH value of a mixed test solution containing 0.008 mol/L of disodium hydrogen phosphate solution/methanol/40% aqueous tetrabutylammonium hydroxide solution (385:110:1.3 (volume ratio)) was adjusted to 7.5 by adding phosphoric acid. • Flow rate: The flow rate was regulated so that the retention time of calcium levofolinate became about 10 minutes. • Internal standard solution: A solution prepared by adding water to 0.04 g of methyl parahydroxybenzoate so that the whole amount of solution is 100 ml.
About 1100 ml of water for injection were added to a beaker. Then, 8.04 g of sodium chloride, 3.6 g of tromethamine, and 1.2 g of ascorbic acid were added thereto with bubbling of nitrogen gas, and the components were dissolved with stirring. To the resultant solution were added 15.62 g of calcium levofolinate, which was dissolved with stirring. Thereafter, the pH value of the solution was adjusted to 6.2 by adding 5% hydrochloric acid solution dropwise. Water for injection was further added to the solution to adjust the total volume to 1200 ml. Subsequently, the bubbling of nitrogen gas was stopped, and the solution was filtered with a filtration filter, thereby to yield a solution for injection. A 5 ml-syringe made of polypropylene, the inside space of which had been substituted by nitrogen gas, was filled with 5 ml of the resultant solution for injection, followed by steam sterilization under high pressure at 105° C. for 30 minutes. The thus-sterilized syringe was packaged together with a deoxidant, AGELESS ZP-50 (trade name, Mitsubishi Gas Chemical Company, Inc. Japan) by using a plastic film with high air impermeability.
For an aqueous preparation as obtained above, a stability test (60° C./75% RH, and 40° C./75% RH) was performed by measuring the content of calcium levofolinate remaining after storage for a certain period by the high performance liquid chromatography method.

## Nc1nc(=O)c2c([nH]1)NC[C@H](CNc1ccc(C(=O)N[C@@H](CCC(=O)O)C(=O)O)cc1)N2C=O [calcium levofolinate, (6S)-N-[4-[[(2-amino-5-formyl-1,4,5,6,7,8-hexahydro-4-oxo-6-pteridinyl)methyl]amino]benzoyl]-L-glutamic acid]
0 months
  remaining ratio (%) of calcium levofolinate: 100%
0 weeks
  remaining ratio (%) of calcium levofolinate: 100%
1 month
  remaining ratio (%) of calcium levofolinate: 99.8%
2 months
  remaining ratio (%) of calcium levofolinate: 98.8%
4 months
  remaining ratio (%) of calcium levofolinate: 96.6%
6 months
  remaining ratio (%) of calcium levofolinate: 91.8%
168 h
  remaining ratio (%) of calcium levofolinate: 96.6%
336 h
  remaining ratio (%) of calcium levofolinate: 96.2%
504 h
  remaining ratio (%) of calcium levofolinate: 95.3%
672 h
  remaining ratio (%) of calcium levofolinate: 94.4%
